Data on 2 compounds can be found in patent publication US20210130417A1, “SYSTEMS AND METHODS FOR DESIGNING SYNTHETIC ANTIMICROBIAL PEPTIDES” (University of Notre Dame du Lac, priority 2017, published 2021).

For one data set, the system named is HaCaT cells. In words: Ethidium homodimer cytotoxicity assay. It counts as cell-based, human. The procedure:
Medium was aspirated, and cells were washed with PBS. […] Cells were incubated with peptide for 16 h. Medium was aspirated, and cells were washed with PBS. […] The fluorescence was read again. […] Washed cells were resuspended in 25 mL of PBS. […] Samples were read at 450 nm.

Data set [1] has as its system sheep red blood cells (RBCs).
Procedure: For hemolysis assays, 100 μL of sheep red blood cells (RBCs) were washed three times in cold PBS (Thermo Fischer). Washed cells were resuspended in 25 mL of PBS. Triton, PBS, or peptide in 10% DMSO/PBS were added to 180 μL of resuspended RBCs and incubated at 37° C. for 1 h. Samples were read at 450 nm. Data was expressed as percent hemolysis by relativizing to the Triton and PBS controls.
The test system of the next data set is E. coli BL-21. Format: cell-based, Escherichia coli.
For data set [2], the system named is Pseudomonas aeruginosa PAO1. From the text: (§1) E. coli BL-21 frozen stock culture was purchased from Thermo Fischer. Pseudomonas aeruginosa PAO1 frozen stock culture was obtained from the Shrout Laboratory at the University of Notre Dame. Pseudomonas syringae frozen stock culture was obtained from the Innes Laboratory at Indiana University. Xanthomonas axonopodis pathovar Starr and Garces pathovar phaseoli (ATCC 9563) frozen stock culture was purchased from the ATCC. Streptococcus pyogenes M1T1 frozen stock culture was obtained from the lab of Dr. Victor Nizet, University of California San Diego. A methicillin resistant Staphylococcus aureus JKD frozen stock culture was obtained from the lab of Dr. Timothy Stinear, University of Melbourne.
(§2) The E. coli, P. aeruginosa, and P. syringae bacterial strains were routinely grown in LB broth (EMD Chemicals, Gibbstown, N.J.). S. aureus and S. pyogenes were routinely grown in Todd Hewitt broth (Neogen Corporation, Lansing, Mich.). X. axonopodis was routinely grown in Nutrient Broth (Sigma-Aldrich Co., St. Louis, Mo.). P. syringae and X. axonopodis were grown at room temperature without agitation. All other bacteria were grown at 37° C. with agitation.
(§3) Overnight bacterial cultures were diluted to an OD of 0.01. […] and 10 μL of 10× peptide or vehicle were added to the wells of a 96-well microtiter plate for a final 1× concentration. Bacteria were grown in desired growth conditions in a Synergy H1 Microplate Reader (Biotek, Winooski, Vt.). For MIC, serial two-fold dilutions of the peptides were used. MIC was determined as the concentration of peptide that prevented overnight growth as indicated by OD 600. For peptide screening, 8 μM or 4 μM peptide was screened against various bacteria. Peptides that inhibited overnight growth were selected for further study.

Data set [3] has as its system Streptococcus pyogenes M1T1.
Excerpt: as §1, §2, §3

In brackets after ≈: the same amount, converted by molar mass. Residues, ends and D or L forms follow the SMILES beside them.

Procedure for E. coli BL-21: The E. coli, P. aeruginosa, and P. syringae bacterial strains were routinely grown in LB broth (EMD Chemicals, Gibbstown, N.J.). […] All other bacteria were grown at 37° C. with agitation.
Overnight bacterial cultures were diluted to an OD of 0.01. μL of diluted culture and 10 μL of 10× peptide or vehicle were added to the wells of a 96-well microtiter plate for a final 1× concentration. Bacteria were grown in desired growth conditions in a Synergy H1 Microplate Reader (Biotek, Winooski, Vt.). For MIC, serial two-fold dilutions of the peptides were used. MIC was determined as the concentration of peptide that prevented overnight growth as indicated by OD 600.

On to `CC[C@H](C)[C@H](NC(=O)[C@H](CC(C)C)NC(=O)[C@H](CO)NC(=O)[C@@H](N)CC(C)C)C(=O)N[C@@H](C)C(=O)N[C@@H](C)C(=O)N[C@@H](C)C(=O)NCC(=O)N[C@@H](CCCCN)C(=O)N[C@@H](CCC(=O)O)C(=O)N[C@H](C(=O)N[C@H](C(=O)N[C@@H](CCCNC(=N)N)C(=O)N[C@@H](CCC(N)=O)C(=O)N[C@@H](Cc1ccc(O)cc1)C(=O)N[C@@H](CC(C)C)C(=O)N[C@@H](CCCCN)C(=O)N[C@@H](CC(N)=O)C(=O)N[C@@H](CCC(=O)O)C(=O)N[C@H](C(=O)N[C@@H](CCCCN)C(=O)N[C@@H](CCCCN)C(=O)N[C@@H](CCCCN)C(=O)NCC(=O)N[C@@H](CCCNC(=N)N)C(=O)N[C@@H](CCCCN)C(=O)N[C@@H](C)C(=O)N[C@H](C(=O)N[C@H](C(=O)N[C@@H](C)C(=O)N[C@@H](Cc1c[nH]c2ccccc12)C(=O)O)[C@@H](C)CC)C(C)C)[C@@H](C)CC)[C@@H](C)CC)[C@@H](C)O` [syn-safencin] (H-LSLIAAAGKETIRQYLKNEIKKKGRKAVIAW-OH), for which the “cytotoxicity, dose dependence” value in the data set on HaCaT cells (HaCaT cells treated for 16 h, up to 32 μM) is “slight dose-dependent increase in cytotoxicity”. For the same compound, in the data set on HaCaT cells (HaCaT cells, 16 h, 8 μM peptide), the “cytotoxicity at the MIC for X. axonopodis” value is “no significant increase in cytotoxicity”. In the data set with HaCaT cells (HaCaT cells, 16 h, 32 μM peptide (highest dose), vehicle control 17%), this compound returned a percent of cytotoxicity of roughly 25%. For the same compound, the hemolytic activity result in data set [1] (at the concentrations tested) is on record as “mild hemolytic activity”.
As to `CC[C@H](C)[C@H](NC(=O)[C@H](CCCCN)NC(=O)[C@H](CCC(=O)O)NC(=O)[C@H](CCCCN)NC(=O)[C@H](Cc1c[nH]c2ccccc12)NC(=O)[C@H](C)N)C(=O)N[C@@H](CCCNC(=N)N)C(=O)N[C@@H](CCCCN)C(=O)N[C@@H](CCCCN)C(=O)N[C@@H](CC(C)C)C(=O)N[C@@H](CCCCN)C(=O)N[C@@H](CC(N)=O)C(=O)N[C@@H](CCC(=O)O)C(=O)N[C@H](C(=O)N[C@@H](CCCCN)C(=O)N[C@@H](CCCCN)C(=O)N[C@@H](CCCCN)C(=O)N[C@@H](Cc1c[nH]c2ccccc12)C(=O)N[C@@H](CCCNC(=N)N)C(=O)N[C@@H](CCCCN)C(=O)N[C@@H](C)C(=O)N[C@H](C(=O)N[C@H](C(=O)N[C@@H](C)C(=O)N[C@@H](Cc1c[nH]c2ccccc12)C(=O)O)[C@@H](C)CC)C(C)C)[C@@H](C)CC` [Peptide 96] (H-AWKEKIRKKLKNEIKKKWRKAVIAW-OH), the “MIC E. coli” value against E. coli BL-21 worked out at 2 µM (≈ 6.36 µg/mL). Besides, the “MIC P. aeruginosa” value in data set [2] came to 8 µM. The “MIC S. pyogenes” value in data set [3] was 8 µM. In addition, in data set [1] (compared to the PBS control), the “hemolysis of library peptides” value was “no significant changes in hemolysis”.
